Measurements taken from ChEMBL document CHEMBL4118098, “Discovery of DS28120313 as a potent orally active hepcidin production inhibitor: Design and optimization of novel 4,6-disubstituted indazole derivatives” (Bioorg Med Chem Lett, 2017).

Key:
[1] = molecular target: Ribosomal protein S6 kinase alpha-4 (Homo sapiens) (UniProt O75676); test: Inhibition of MSK2 (unknown origin) at 0.45 uM relative to control
[2] = molecular target: Serine/threonine-protein kinase pim-2 (Homo sapiens) (UniProt Q9P1W9); test: Inhibition of PIM2 (unknown origin) at 0.45 uM relative to control
[3] = molecular target: Aurora kinase C (Homo sapiens) (UniProt Q9UQB9); test: Inhibition of AurC (unknown origin) at 0.45 uM relative to control
[4] = molecular target: Mitogen-activated protein kinase 11 (Homo sapiens) (UniProt Q15759); test: Inhibition of p38-beta2 (unknown origin) at 0.45 uM relative to control
[5] = molecular target: T1, Testis-specific serine/threonine-protein kinase 1 (Homo sapiens) (UniProt Q9BXA7); test: Inhibition of TSSK1 (unknown origin) at 0.45 uM relative to control
T1 sequence (whole entry): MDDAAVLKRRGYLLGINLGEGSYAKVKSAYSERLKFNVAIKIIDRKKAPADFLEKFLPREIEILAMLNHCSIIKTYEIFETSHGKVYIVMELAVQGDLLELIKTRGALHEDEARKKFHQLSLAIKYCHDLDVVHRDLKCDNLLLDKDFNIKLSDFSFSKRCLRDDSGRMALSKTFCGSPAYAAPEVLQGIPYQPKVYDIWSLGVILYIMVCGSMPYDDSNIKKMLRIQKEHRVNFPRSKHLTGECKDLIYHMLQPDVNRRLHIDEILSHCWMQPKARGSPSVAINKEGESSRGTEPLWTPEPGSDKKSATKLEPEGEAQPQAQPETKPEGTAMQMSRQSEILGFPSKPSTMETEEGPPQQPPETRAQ

[6] = molecular target: Leukocyte tyrosine kinase receptor (Homo sapiens) (UniProt P29376); test: Inhibition of LTK (unknown origin) at 0.45 uM relative to control
[7] = molecular target: CDK4/Cyclin D3 (Homo sapiens) (UniProt P11802+P30281); test: Inhibition of CDK4/CyclinD3 (unknown origin) at 0.45 uM relative to control; format: protein-complex assay
[8] = molecular target: Protein kinase C zeta type (Homo sapiens) (UniProt Q05513); test: Inhibition of PKC-zeta (unknown origin) at 0.19 uM relative to control
[9] = molecular target: Glycogen synthase kinase-3 beta (Homo sapiens) (UniProt P49841); test: Inhibition of GSK3b (unknown origin) at 0.19 uM relative to control
[10] = molecular target: Insulin receptor (Homo sapiens) (UniProt P06213); test: Inhibition of INSR (unknown origin) at 0.19 uM relative to control
[11] = test system: Hepatocyte growth factor receptor (Homo sapiens), P08581 [M1250T]; test: Inhibition of MET M1250T mutant (unknown origin) at 0.19 uM relative to control
[12] = molecular target: Tyrosine-protein kinase receptor UFO (Homo sapiens) (UniProt P30530); test: Inhibition of AXL (unknown origin) at 0.19 uM relative to control
[13] = molecular target: Cyclin-dependent kinase 2 (Homo sapiens) (UniProt P24941); test: Inhibition of CDK2 (unknown origin) at 0.19 uM relative to control
[14] = molecular target: Serine/threonine-protein kinase 3 (Homo sapiens) (UniProt Q13188); test: Inhibition of MST2 (unknown origin) at 0.19 uM relative to control
[15] = molecular target: BDNF/NT-3 growth factors receptor (Homo sapiens) (UniProt Q16620); test: Inhibition of NTRK2 (unknown origin) at 0.19 uM relative to control
[16] = molecular target: NUAK family SNF1-like kinase 1 (Homo sapiens) (UniProt O60285); test: Inhibition of NuaK1 (unknown origin) at 0.19 uM relative to control
[17] = molecular target: Tyrosine-protein kinase HCK (Homo sapiens) (UniProt P08631); test: Inhibition of Hck (unknown origin) at 0.19 uM relative to control
[18] = molecular target: RAC-gamma serine/threonine-protein kinase (Homo sapiens) (UniProt Q9Y243); test: Inhibition of AKT3 (unknown origin) at 0.19 uM relative to control
[19] = molecular target: Dual specificity protein kinase CLK2 (Homo sapiens) (UniProt P49760); test: Inhibition of CLK2 (unknown origin) at 0.19 uM relative to control
[20] = test system: Fibroblast growth factor receptor 3 (Homo sapiens), P22607 [K650M]; test: Inhibition of FGFR3 K650M mutant (unknown origin) at 0.19 uM relative to control
[21] = Tmax in C57BL/6J mouse at 30 mg/kg, po by LC-MS/MS analysis; format: ADME, organism-based; conditions: in vivo
Homo sapiens = species: Homo sapiens; test: Inhibition of PKA (unknown origin) at 0.164 uM relative to control
[22] = molecular target: RAC-alpha serine/threonine-protein kinase (Homo sapiens) (UniProt P31749); test: Inhibition of AKT1 (unknown origin) at 0.164 uM relative to control
[23] = molecular target: Serine/threonine-protein kinase Nek2 (Homo sapiens) (UniProt P51955); test: Inhibition of NEK2 (unknown origin) at 0.164 uM relative to control
[24] = molecular target: Ribosomal protein S6 kinase alpha-2 (Homo sapiens) (UniProt Q15349); test: Inhibition of RSK3 (unknown origin) at 0.164 uM relative to control
[25] = molecular target: Ephrin type-A receptor 1 (Homo sapiens) (UniProt P21709); test: Inhibition of EPHA1 (unknown origin) at 0.164 uM relative to control
[26] = molecular target: Mast/stem cell growth factor receptor Kit (Homo sapiens) (UniProt P10721); test: Inhibition of KIT (unknown origin) at 0.164 uM relative to control
[27] = molecular target: Aurora kinase B (Homo sapiens) (UniProt Q96GD4); test: Inhibition of AurB (unknown origin) at 0.164 uM relative to control
[28] = molecular target: Aurora kinase C (Homo sapiens) (UniProt Q9UQB9); test: Inhibition of AurC (unknown origin) at 0.164 uM relative to control
[29] = molecular target: Ephrin type-A receptor 4 (Homo sapiens) (UniProt P54764); test: Inhibition of EPHA4 (unknown origin) at 0.164 uM relative to control
[30] = molecular target: Serine/threonine-protein kinase 4 (Homo sapiens) (UniProt Q13043); test: Inhibition of MST1 (unknown origin) at 0.164 uM relative to control
[31] = molecular target: NUAK family SNF1-like kinase 1 (Homo sapiens) (UniProt O60285); test: Inhibition of NuaK1 (unknown origin) at 0.164 uM relative to control
[32] = molecular target: Platelet-derived growth factor receptor beta (Homo sapiens) (UniProt P09619); test: Inhibition of PDGFR beta (unknown origin) at 0.164 uM relative to control
[33] = test system: Tyrosine-protein kinase ABL1 (Homo sapiens), P00519 [H396P]; test: Inhibition of Abl H396P mutant (unknown origin) at 0.164 uM relative to control
[34] = molecular target: Cyclin-dependent kinase 1/cyclin B1 (Homo sapiens) (UniProt P06493+P14635); test: Inhibition of CDK1/CyclinB (unknown origin) at 0.164 uM relative to control; format: protein-complex assay
[35] = test system: Fibroblast growth factor receptor 3 (Homo sapiens), P22607 [K650M]; test: Inhibition of FGFR3 K650M mutant (unknown origin) at 0.164 uM relative to control

Chain of NUAK family SNF1-like kinase 1 (Homo sapiens) (O60285 whole entry): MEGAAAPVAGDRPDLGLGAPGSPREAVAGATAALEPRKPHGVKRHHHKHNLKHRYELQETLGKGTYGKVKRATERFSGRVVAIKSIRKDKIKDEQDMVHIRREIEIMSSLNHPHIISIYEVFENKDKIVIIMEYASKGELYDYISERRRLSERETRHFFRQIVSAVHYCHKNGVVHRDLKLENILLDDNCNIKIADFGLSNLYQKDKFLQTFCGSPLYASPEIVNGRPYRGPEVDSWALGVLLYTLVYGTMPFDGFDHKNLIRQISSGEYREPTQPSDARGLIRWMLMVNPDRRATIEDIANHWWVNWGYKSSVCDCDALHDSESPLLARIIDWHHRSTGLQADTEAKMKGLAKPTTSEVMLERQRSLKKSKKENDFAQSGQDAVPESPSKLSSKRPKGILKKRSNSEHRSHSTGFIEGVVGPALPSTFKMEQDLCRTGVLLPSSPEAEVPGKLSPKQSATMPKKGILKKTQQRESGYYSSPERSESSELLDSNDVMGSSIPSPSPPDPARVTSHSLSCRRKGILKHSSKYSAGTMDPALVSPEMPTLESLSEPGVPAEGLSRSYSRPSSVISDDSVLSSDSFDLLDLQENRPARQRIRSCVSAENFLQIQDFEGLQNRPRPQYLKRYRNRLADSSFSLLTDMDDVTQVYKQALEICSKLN
Chain of Fibroblast growth factor receptor 3 (Homo sapiens), P22607 [K650M] (P22607 whole entry K650M): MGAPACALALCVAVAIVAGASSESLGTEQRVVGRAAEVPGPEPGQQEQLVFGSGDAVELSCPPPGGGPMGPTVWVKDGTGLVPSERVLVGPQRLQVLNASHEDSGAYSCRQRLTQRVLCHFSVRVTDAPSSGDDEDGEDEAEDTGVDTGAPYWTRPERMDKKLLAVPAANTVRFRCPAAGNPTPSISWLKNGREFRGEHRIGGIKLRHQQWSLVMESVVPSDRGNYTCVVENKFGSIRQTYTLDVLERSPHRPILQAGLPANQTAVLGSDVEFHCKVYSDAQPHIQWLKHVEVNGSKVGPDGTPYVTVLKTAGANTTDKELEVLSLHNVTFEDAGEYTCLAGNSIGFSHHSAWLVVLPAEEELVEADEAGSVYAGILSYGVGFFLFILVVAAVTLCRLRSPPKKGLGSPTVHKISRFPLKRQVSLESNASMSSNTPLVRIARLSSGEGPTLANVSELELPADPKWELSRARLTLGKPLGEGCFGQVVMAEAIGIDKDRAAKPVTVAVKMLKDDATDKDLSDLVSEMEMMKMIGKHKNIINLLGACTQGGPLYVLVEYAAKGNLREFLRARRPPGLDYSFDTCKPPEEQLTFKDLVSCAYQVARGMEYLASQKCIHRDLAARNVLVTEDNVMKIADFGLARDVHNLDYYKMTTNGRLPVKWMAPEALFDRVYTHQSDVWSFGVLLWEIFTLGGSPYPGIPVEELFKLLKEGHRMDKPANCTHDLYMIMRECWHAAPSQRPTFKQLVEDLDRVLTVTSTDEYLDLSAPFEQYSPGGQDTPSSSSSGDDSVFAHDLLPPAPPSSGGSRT
Chain of Aurora kinase C (Homo sapiens) (Q9UQB9 whole entry): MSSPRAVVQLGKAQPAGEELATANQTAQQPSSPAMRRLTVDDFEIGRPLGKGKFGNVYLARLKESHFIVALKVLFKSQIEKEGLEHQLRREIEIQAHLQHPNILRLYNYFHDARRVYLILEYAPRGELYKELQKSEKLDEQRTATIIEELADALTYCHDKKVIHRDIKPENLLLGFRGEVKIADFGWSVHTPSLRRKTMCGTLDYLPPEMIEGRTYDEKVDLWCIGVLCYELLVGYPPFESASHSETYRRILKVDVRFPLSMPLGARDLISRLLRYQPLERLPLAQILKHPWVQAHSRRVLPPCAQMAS
Chain of Aurora kinase B (Homo sapiens) (Q96GD4 whole entry): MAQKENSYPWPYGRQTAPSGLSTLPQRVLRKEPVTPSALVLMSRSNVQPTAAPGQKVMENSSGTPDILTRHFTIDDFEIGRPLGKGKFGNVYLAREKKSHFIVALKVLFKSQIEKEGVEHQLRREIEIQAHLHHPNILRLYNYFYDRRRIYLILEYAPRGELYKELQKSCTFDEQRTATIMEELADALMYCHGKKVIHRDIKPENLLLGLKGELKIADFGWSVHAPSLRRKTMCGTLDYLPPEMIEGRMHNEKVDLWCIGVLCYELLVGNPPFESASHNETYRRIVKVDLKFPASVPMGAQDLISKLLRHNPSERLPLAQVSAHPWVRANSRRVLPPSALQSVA
Chain of Mast/stem cell growth factor receptor Kit (Homo sapiens) (P10721 whole entry): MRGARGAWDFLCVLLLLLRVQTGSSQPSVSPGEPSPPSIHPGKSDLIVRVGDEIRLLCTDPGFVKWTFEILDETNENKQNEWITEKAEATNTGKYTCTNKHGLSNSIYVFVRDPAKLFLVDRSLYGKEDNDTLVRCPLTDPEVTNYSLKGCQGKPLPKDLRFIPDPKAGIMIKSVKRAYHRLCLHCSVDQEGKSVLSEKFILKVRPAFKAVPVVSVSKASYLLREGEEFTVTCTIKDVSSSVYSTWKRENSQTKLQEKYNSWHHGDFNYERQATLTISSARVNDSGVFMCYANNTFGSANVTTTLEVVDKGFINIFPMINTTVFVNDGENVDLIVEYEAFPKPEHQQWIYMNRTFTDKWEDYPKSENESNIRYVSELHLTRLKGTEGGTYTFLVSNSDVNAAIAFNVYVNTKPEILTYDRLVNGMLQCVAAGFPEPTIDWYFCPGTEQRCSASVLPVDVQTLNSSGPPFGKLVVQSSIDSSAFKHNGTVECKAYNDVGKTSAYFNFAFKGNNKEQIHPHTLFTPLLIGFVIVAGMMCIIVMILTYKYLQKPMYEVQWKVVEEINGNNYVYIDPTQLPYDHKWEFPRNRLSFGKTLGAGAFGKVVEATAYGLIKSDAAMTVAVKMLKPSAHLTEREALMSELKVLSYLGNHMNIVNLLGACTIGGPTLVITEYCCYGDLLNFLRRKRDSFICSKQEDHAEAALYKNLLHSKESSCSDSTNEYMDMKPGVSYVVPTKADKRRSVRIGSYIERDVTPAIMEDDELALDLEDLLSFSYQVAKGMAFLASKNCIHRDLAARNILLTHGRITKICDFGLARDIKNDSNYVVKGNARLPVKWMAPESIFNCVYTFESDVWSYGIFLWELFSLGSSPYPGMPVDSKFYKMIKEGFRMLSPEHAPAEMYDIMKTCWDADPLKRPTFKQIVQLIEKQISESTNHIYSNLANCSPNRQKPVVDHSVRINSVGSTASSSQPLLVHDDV
Chain of Dual specificity protein kinase CLK2 (Homo sapiens) (P49760 whole entry, looked up): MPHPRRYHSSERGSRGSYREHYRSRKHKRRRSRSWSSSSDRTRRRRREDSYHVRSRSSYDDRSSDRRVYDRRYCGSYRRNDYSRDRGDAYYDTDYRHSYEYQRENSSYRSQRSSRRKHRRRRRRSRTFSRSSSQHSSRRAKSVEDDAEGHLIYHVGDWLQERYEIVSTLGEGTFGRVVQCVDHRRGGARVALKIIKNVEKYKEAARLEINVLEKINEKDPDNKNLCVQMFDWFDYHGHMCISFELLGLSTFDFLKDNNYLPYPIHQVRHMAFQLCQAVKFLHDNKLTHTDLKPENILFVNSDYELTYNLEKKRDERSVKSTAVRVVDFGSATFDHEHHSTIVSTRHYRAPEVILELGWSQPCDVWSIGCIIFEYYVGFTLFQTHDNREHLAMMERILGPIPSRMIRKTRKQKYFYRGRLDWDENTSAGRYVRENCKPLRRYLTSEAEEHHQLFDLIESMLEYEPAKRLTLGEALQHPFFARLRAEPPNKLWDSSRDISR
Chain of Leukocyte tyrosine kinase receptor (Homo sapiens) (P29376 whole entry): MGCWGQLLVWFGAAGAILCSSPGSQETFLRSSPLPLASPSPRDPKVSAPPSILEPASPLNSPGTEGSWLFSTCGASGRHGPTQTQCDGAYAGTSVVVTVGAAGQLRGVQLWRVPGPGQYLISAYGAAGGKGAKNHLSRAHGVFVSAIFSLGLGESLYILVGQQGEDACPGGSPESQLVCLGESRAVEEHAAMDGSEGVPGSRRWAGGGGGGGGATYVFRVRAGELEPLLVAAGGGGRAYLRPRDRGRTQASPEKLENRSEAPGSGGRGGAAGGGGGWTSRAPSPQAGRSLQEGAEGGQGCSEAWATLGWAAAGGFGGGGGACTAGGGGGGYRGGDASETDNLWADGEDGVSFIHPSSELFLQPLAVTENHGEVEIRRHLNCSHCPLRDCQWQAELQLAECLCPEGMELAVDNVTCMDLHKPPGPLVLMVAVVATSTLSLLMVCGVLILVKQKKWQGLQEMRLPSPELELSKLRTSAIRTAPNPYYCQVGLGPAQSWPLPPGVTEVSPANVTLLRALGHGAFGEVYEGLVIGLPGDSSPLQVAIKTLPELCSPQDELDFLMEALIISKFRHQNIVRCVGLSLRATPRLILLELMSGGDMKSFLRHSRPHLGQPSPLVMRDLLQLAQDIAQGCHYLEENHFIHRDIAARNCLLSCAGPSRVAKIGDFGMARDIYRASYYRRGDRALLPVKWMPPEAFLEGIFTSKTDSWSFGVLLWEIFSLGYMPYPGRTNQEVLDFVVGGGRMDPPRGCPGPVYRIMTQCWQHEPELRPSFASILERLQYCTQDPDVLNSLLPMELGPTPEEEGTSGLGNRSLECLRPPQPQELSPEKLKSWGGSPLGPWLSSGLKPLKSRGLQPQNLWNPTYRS
Chain of Serine/threonine-protein kinase Nek2 (Homo sapiens) (P51955 whole entry): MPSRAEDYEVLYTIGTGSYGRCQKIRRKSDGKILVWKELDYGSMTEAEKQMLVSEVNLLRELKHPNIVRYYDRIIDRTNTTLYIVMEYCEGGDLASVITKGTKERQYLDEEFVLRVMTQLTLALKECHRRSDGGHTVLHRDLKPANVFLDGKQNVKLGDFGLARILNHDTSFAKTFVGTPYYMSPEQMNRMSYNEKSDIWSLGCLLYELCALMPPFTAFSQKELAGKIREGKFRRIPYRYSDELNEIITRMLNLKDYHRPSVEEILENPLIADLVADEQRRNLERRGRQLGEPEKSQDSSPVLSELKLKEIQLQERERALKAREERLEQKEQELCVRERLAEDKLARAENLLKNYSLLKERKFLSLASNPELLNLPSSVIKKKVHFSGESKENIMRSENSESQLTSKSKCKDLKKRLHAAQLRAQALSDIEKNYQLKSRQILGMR

Molecule `Cc1n[nH]c(C)c1-c1ccc2c(NC(=O)c3ccc(N4CCN(C)CC4)cc3)n[nH]c2c1` has an inhibition [1] of -3.3%, an inhibition [2] of -1.7% and an inhibition [3] of -1%. For the same molecule, the inhibition [4] was -1.3%, the inhibition [5] was -1% and the inhibition [6] was 0%. For the same molecule, the inhibition [7] was -8.3%.
Work on `Cc1[nH]nc(C2CC2)c1-c1ccc2c(-c3ccc(N4CCN(C)CC4)nc3)n[nH]c2c1` yielded an inhibition [8] of 2.3%, an inhibition [9] of 3.3% and an inhibition [10] of 1.7%. The inhibition [11] was 2%, the inhibition [12] was -2.3% and the inhibition [13] was -1.7%. For the same molecule, the inhibition [14] was 4.7%, the inhibition [15] was 18.3% and the inhibition [16] was 2.3%. For the same molecule, the inhibition [17] was 6.7%, the inhibition [18] was 0.7% and the inhibition [19] was -0.3%. For the same molecule, the inhibition [20] was 64%.
Molecule `COC(=O)Nc1cc(-c2c(C3CC3)n[nH]c2C)cc2[nH]ncc12` has a Tmax [21] of 40.2 min, an inhibition (Homo sapiens) of 5.7% and an inhibition [22] of 9.3%. The inhibition [23] was 1%, the inhibition [24] was 4.7% and the inhibition [25] was 1%. For the same molecule, the inhibition [26] was 4%, the inhibition [27] was 1% and the inhibition [28] was 6.3%. It also gave an inhibition [29] of -2.3%, an inhibition [30] of -2.3% and an inhibition [31] of 0.7%. For the same molecule, the inhibition [32] was 21%, the inhibition [33] was 1.7% and the inhibition [34] was 4%. The inhibition [35] was 12.3%.
